Assay results from US20210177828A1, “TAM FAMILY KINASE /AND CSF1R KINASE INHIBITOR AND USE THEREOF” (Nanjing Transthera Biosciences Co., Ltd., priority 2018, published 2021).

Key:
Type in all cases: biochemical
[1] = molecular target: T1, Axl (h) (Homo sapiens, UniProt P30530); assay: Enzymatic activity assay, Axl (h), [γ-33P]-ATP filter assay; conditions: 10 μM ATP, 40 min room temperature; read-out: Inhibitory activity IC50 Axl(h)
T1 sequence (P30530 26-894): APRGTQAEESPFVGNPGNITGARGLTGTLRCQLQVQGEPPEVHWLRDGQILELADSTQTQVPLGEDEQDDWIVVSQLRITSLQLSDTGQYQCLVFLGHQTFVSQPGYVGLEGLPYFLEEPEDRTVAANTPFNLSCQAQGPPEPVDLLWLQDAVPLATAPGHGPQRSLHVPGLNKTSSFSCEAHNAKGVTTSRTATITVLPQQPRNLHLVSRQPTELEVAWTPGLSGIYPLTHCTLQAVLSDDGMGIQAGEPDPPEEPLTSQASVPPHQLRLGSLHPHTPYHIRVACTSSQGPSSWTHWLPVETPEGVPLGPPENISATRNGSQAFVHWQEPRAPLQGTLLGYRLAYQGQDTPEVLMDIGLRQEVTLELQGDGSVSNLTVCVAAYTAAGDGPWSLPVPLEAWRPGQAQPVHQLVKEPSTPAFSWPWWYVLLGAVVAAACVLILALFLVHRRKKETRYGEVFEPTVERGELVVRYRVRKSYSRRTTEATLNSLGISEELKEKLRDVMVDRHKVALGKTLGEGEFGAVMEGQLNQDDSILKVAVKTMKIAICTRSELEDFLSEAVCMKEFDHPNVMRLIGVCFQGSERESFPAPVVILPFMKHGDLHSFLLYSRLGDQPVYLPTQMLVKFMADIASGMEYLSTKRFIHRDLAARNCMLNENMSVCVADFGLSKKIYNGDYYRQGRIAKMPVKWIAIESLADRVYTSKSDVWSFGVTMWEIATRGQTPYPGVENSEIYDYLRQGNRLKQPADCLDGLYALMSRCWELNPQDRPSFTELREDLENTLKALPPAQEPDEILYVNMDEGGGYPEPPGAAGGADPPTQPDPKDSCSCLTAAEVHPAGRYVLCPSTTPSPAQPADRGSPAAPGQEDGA
Procedure: (§1) Compounds were each dissolved in 100% DMSO to prepare stock solutions with a maximum concentration of 500 μM.
(§2) Compound working solutions (50×) were prepared by diluting a compound stock solution to a final concentration of 500, 150, 50, 15, 5, 1.5, 0.5, 0.15 and 0.05 μM.
An enzyme solution with a final concentration of 1.7 nM was prepared by dissolving Axl (h) enzyme in a mixture of 8 mM MOPS (pH 7.0), 0.2 mM EDTA and 250 μM KKSRGDYMTMQIG. A Mg/ATP mixture of 10 mM magnesium acetate and 10 μM [γ-^33P]-ATP was used to activate the enzymatic reaction.
(§3) A compound working solution was added to a 384-well plate, with final concentrations of 10,000, 3,000, 1,000, 300, 100, 30, 10, 3 and 1 nM, and then different enzymatic reaction solutions prepared according to the above conditions were added. The reaction solutions were incubated at room temperature for 40 min, and then 0.5% phosphoric acid solutions were added to terminate the reaction. 10 μL of the reaction solution was added dropwise to P30 filter paper, washed 4 times with a 0.425% phosphoric acid solution and once with methanol, and then placed in a scintillation counter for detection. Gray analysis was performed on the results with Image J software, and IC50 values were calculated with GraphPad 5.0 software.

[2] = molecular target: T2, Mer (h) (Homo sapiens, UniProt Q12866); assay: Enzymatic activity assay, Mer (h), [γ-33P]-ATP filter assay; conditions: 10 μM ATP, 40 min room temperature; read-out: Inhibitory activity IC50 Mer(h)
T2 sequence (Q12866 21-999): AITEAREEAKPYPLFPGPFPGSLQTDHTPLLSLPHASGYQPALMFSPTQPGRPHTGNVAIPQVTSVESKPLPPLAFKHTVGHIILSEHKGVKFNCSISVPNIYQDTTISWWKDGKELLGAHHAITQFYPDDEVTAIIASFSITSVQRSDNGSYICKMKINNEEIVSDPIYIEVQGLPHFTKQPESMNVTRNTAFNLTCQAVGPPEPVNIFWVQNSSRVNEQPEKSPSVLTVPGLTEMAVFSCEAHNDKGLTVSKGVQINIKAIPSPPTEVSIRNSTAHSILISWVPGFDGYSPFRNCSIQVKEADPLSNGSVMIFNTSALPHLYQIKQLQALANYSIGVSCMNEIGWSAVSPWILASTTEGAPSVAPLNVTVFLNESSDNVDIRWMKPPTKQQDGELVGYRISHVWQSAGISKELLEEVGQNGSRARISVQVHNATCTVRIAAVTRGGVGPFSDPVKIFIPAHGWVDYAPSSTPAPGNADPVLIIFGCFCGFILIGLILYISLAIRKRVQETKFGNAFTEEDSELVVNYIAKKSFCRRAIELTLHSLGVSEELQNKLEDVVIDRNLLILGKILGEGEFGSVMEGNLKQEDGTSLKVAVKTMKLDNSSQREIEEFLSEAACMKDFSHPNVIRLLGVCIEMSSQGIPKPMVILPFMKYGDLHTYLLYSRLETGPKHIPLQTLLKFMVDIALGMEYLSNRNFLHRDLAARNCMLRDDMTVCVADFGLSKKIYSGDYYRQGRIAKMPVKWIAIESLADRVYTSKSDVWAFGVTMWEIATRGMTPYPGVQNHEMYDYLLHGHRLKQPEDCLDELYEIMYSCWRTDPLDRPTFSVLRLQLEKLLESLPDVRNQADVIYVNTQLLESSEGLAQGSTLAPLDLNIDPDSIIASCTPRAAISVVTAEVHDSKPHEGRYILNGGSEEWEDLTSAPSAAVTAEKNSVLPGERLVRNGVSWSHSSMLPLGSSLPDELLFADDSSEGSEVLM
Procedure: as §1, §2
An enzyme solution with a final concentration of 3.1 nM was prepared by dissolving Mer (h) enzyme in a mixture of 8 mM MOPS (pH 7.0), 0.2 mM EDTA, 30 mM NaCl and 250 μM GGMEDIYFEFMGGKKK. A Mg/ATP mixture of 10 mM magnesium acetate and 10 μM [γ-^33P]-ATP was used to activate the enzymatic reaction.
as §3

[3] = molecular target: CSF1R (h) (Homo sapiens, UniProt P07333); assay: Enzymatic activity assay, CSF1R (h), [γ-33P]-ATP filter assay; conditions: 10 μM ATP, 40 min room temperature; read-out: Inhibitory activity IC50 CSF1R(h)
Sequence of CSF1R (h) (P07333 20-972): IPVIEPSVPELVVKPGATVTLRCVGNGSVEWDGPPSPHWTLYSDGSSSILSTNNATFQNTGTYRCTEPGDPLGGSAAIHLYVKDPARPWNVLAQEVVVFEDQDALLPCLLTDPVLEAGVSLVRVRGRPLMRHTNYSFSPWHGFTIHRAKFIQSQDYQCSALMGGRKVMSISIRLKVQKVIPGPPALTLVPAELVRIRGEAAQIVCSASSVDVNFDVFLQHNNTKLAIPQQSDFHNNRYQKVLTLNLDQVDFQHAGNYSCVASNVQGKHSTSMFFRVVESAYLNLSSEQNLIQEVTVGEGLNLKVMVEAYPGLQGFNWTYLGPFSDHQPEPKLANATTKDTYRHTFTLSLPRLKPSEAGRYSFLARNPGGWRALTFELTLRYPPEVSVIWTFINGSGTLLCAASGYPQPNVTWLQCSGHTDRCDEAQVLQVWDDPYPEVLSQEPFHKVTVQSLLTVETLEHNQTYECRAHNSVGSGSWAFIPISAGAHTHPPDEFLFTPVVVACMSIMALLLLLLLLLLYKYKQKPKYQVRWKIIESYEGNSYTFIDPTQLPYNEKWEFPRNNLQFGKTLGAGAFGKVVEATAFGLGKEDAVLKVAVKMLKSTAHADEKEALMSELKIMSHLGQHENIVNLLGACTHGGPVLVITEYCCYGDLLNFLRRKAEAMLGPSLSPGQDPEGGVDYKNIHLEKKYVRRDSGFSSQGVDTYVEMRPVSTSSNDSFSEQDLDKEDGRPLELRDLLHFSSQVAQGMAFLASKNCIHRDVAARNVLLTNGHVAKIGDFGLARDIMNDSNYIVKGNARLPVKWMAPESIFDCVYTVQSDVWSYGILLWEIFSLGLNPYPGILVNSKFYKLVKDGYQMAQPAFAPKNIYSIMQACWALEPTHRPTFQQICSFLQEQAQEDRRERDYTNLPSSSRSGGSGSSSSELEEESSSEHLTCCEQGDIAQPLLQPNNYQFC
Procedure: as §1, §2
An enzyme solution with a final concentration of 64 nM was prepared by dissolving CSF1R enzyme in a mixture of 8 mM MOPS (pH 7.0), 0.2 mM EDTA and 250 μM KKSRGDYMTMQIG. A Mg/ATP mixture of 10 mM magnesium acetate and 10 μM [γ-^33P]-ATP was used to activate the enzymatic reaction.
as §3

Compound: COc1cc2nccc(Oc3cnc(NC(=O)c4nn(C5CCOCC5)cc(-c5ccc(C)cc5)c4=O)nc3)c2cc1OC [Compound 18, N-(5-((6,7-dimethoxyquinolin-4-yl)oxy)pyrimidin-2-yl)-4-oxo-1-(tetrahydro-2H-pyran-4-yl)-5-(p-tolyl)-1,4-dihydropyridazin-3-carboxamide]
- IC50 [1]: 7 nM
- IC50 [2]: 5 nM
- IC50 [3]: < 200 nM

Compound: COc1cc2nccc(Oc3cnc(NC(=O)c4cn(C5CCOCC5)cc(-c5ccc(C)cc5)c4=O)nc3)c2cc1OC [Compound 20, N-(5-((6,7-dimethoxyquinolin-4-yl)oxy)pyrimidin-2-yl)-4-oxo-1-(tetrahydro-2H-pyran-4-yl)-5-(p-tolyl)-1,4-dihydropyridin-3-carboxamide]
- IC50 [1]: 4 nM
- IC50 [2]: 14 nM
- IC50 [3]: < 200 nM

Compound: COc1cc2nccc(Oc3ccc(NC(=O)c4cc(CC5CCOCC5)cn(-c5ccc(C)cc5)c4=O)nc3)c2cc1OC [Compound 26, N-(5-((6,7-dimethoxyquinolin-4-yl)oxy)pyridin-2-yl)-oxo-5-((tetrahydro-2H-pyran-4-yl)methyl)-1-(p-tolyl)-1,2-dihydropyridin-3-carboxamide]
- IC50 [1]: 20 nM
- IC50 [2]: 8 nM
- IC50 [3]: < 200 nM

Compound: COc1cc2nccc(Oc3ccc(NC(=O)c4cn(C5CCOCC5)cc(-c5ccc(F)cc5)c4=O)nc3)c2cc1OC [Compound 27, N-(5-((6,7-dimethoxyquinolin-4-yl)oxy)pyridin-2-yl)-5-(4-fluorophenyl)-4-oxo-1-(tetrahydro-2H-pyran-4-yl)-1,4-dihydropyridin-3-carboxamide]
- IC50 [1]: 13 nM
- IC50 [2]: 7 nM
- IC50 [3]: < 200 nM

Compound: COc1cc2nccc(Oc3ccc(NC(=O)c4nn(C5CCOCC5)cc(-c5ccc(C)cc5)c4=O)cc3F)c2cc1OC [Compound 28]
- IC50 [1]: 23 nM
- IC50 [2]: 1 nM
- IC50 [3]: < 200 nM

Compound: COc1cc2nccc(Oc3cnc(NC(=O)c4cn(C5CCOCC5)cc(-c5ccc(F)cc5)c4=O)nc3)c2cc1OC [Compound 31, N-(5-((6,7-dimethoxyquinolin-4-yl)oxy)pyrimidin-2-yl)-5-(4-fluorophenyl)-4-oxo-1-(tetrahydro-2H-pyran-4-yl)-1,4-dihydropyridin-3-carboxamide]
- IC50 [1]: 15 nM
- IC50 [2]: 8 nM
- IC50 [3]: < 200 nM

Compound: COc1cc2nccc(Oc3ccc(NC(=O)c4cc(CC5CCOCC5)cn(-c5ccc(F)cc5)c4=O)nc3)c2cc1OC [Compound 32, N-(5-((6,7-dimethoxyquinolin-4-yl)oxy)pyridin-2-yl)-1-(4-fluorophenyl)-2-oxo-5-((tetrahydro-2H-pyran-4-yl)methy 1)-1,2-dihydropyridin-3-carboxamide]
- IC50 [1]: 31 nM
- IC50 [2]: 12 nM
- IC50 [3]: < 200 nM

Compound: COc1cc2nccc(Oc3cnc(NC(=O)c4nn(C5CCOCC5)cc(-c5ccc(F)cc5)c4=O)nc3)c2cc1OC [Compound 33, N-(5-((6,7-dimethoxyquinolin-4-yl)oxy)pyrimidin-2-yl)-5-(4-fluorophenyl)-4-oxo-1-(tetrahydro-2H-pyran-4-yl)-1,4-dihydropyridazin-3-carboxamide]
- IC50 [1]: 27 nM
- IC50 [2]: 6 nM
- IC50 [3]: < 200 nM

Compound: COc1cc2nccc(Oc3ccc(NC(=O)c4nn(C5CCOCC5)cc(-c5ccc(F)cc5)c4=O)nc3)c2cc1OC [Compound 34, N-(5-((6,7-dimethoxyquinolin-4-yl)oxy)pyridin-2-yl)-5-(4-fluorophenyl)-4-oxo-1-(tetrahydro-2H-pyran-4-yl)-1,4-dihydropyridazin-3-carboxamide]
- IC50 [1]: 29 nM
- IC50 [2]: 2 nM
- IC50 [3]: < 200 nM
